From ChEMBL document CHEMBL5465560, “Selectivity Literature for EUbOPEN Chemogenomic Library” (2024)

Key:
[1] = molecular target: T1, Dual specificity tyrosine-phosphorylation-regulated kinase 2 (Homo sapiens) (UniProt Q92630); assay: Selectivity interaction (KinomeScan (DiscoverX)) EUB0000229b DYRK2; conditions: at 10 µM
T1 sequence (whole entry): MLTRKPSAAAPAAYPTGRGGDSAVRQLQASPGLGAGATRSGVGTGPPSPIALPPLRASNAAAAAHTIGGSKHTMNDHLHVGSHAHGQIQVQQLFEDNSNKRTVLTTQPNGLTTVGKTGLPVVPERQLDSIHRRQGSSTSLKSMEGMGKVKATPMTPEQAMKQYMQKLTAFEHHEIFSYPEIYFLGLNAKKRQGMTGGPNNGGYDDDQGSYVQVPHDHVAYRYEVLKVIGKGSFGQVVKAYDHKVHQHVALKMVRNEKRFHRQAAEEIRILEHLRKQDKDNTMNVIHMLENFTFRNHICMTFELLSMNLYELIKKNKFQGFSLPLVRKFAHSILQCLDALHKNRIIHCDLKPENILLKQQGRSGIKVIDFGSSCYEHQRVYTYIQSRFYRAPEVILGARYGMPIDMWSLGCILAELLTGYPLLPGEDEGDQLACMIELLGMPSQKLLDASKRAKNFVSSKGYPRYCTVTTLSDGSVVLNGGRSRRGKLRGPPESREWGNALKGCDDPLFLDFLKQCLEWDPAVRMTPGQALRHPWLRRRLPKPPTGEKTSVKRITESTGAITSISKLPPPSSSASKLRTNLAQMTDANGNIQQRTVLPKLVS

[2] = molecular target: Cyclin-dependent kinase 2 (Homo sapiens, UniProt P24941); assay: Selectivity interaction (KinomeScan (DiscoverX)) EUB0000666a CDK2; conditions: at 10 µM
[3] = molecular target: Ribosomal protein S6 kinase alpha-5 (Homo sapiens) (UniProt O75582); assay: Selectivity interaction (KinomeScan (DiscoverX)) EUB0000877a RPS6KA5; conditions: at 10 µM
[4] = molecular target: T2, Serine/threonine-protein kinase Chk1 (Homo sapiens) (UniProt O14757); assay: Selectivity interaction (KinomeScan (DiscoverX)) EUB0000607a CHEK1; conditions: at 10 µM
T2 sequence (whole entry): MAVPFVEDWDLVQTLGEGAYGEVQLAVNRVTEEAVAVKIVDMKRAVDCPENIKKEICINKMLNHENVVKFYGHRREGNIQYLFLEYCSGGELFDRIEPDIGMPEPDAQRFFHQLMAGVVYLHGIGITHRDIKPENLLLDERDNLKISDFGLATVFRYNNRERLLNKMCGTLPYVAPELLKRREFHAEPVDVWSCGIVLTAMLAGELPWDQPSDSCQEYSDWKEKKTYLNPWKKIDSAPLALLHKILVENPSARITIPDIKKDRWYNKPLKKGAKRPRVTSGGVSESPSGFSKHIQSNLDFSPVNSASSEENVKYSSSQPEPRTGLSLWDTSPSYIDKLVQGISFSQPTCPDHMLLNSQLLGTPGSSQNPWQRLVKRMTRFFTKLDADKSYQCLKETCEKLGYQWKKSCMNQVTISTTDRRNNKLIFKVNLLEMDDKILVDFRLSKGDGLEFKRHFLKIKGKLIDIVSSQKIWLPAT

[5] = molecular target: Fibroblast growth factor receptor 3 (Homo sapiens, UniProt P22607); assay: (§1) Selectivity interaction (SelectScreen profiling (Invitrogen)) EUB0000607a FGFR3; conditions: at 2 µM
Sequence of Fibroblast growth factor receptor 3 (P22607 23-806 limits assumed): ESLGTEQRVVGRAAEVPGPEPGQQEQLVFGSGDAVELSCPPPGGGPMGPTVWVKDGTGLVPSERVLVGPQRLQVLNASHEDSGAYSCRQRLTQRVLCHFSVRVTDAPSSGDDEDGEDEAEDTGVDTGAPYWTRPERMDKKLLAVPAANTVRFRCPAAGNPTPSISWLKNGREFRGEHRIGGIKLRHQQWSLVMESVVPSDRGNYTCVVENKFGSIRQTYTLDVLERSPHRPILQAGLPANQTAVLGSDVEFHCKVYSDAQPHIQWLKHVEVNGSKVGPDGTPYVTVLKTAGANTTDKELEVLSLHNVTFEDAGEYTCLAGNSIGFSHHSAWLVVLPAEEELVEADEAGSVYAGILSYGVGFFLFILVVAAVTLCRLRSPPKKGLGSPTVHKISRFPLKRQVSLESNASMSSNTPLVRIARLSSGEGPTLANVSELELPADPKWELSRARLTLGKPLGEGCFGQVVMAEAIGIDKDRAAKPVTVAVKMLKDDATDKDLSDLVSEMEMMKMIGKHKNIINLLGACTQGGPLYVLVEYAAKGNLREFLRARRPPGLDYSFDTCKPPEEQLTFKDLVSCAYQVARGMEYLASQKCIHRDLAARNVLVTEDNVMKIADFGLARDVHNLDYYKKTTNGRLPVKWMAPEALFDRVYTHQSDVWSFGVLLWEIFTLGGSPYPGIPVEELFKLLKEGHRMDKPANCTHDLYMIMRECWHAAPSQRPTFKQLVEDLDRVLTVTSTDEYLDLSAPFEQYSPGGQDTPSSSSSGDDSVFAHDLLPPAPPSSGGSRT

[6] = tested on: Fibroblast growth factor receptor 3 (Homo sapiens), P22607 [K650E]; assay: as §1; conditions: at 2 µM
[7] = molecular target: T3, Tyrosine-protein kinase Tec (Homo sapiens) (UniProt P42680); assay: Selectivity interaction (KinomeScan (DiscoverX)) EUB0000695a TEC; conditions: at 100 nM
T3 sequence (whole entry): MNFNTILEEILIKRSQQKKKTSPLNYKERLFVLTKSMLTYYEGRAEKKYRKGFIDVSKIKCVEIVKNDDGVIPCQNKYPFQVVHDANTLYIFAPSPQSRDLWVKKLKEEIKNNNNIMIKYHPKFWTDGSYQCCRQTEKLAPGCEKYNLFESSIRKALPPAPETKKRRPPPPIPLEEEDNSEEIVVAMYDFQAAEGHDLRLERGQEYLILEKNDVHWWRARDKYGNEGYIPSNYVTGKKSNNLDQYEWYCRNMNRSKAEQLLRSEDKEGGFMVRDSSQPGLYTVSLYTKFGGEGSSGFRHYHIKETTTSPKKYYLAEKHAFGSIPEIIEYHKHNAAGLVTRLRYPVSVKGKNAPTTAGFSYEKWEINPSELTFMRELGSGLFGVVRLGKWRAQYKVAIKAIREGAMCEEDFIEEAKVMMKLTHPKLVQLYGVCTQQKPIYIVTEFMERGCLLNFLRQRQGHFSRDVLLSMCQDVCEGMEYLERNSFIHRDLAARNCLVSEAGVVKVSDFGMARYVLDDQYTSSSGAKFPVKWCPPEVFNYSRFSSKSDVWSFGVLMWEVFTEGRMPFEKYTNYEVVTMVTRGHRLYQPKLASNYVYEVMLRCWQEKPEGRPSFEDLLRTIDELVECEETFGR

[8] = molecular target: Serine/threonine-protein kinase/endoribonuclease IRE1 (Homo sapiens) (UniProt O75460); assay: Selectivity interaction (KinomeScan (DiscoverX)) EUB0000595a ERN1; conditions: at 10 µM
Sequence of Serine/threonine-protein kinase/endoribonuclease IRE1 (Homo sapiens) (O75460 19-977 limits assumed): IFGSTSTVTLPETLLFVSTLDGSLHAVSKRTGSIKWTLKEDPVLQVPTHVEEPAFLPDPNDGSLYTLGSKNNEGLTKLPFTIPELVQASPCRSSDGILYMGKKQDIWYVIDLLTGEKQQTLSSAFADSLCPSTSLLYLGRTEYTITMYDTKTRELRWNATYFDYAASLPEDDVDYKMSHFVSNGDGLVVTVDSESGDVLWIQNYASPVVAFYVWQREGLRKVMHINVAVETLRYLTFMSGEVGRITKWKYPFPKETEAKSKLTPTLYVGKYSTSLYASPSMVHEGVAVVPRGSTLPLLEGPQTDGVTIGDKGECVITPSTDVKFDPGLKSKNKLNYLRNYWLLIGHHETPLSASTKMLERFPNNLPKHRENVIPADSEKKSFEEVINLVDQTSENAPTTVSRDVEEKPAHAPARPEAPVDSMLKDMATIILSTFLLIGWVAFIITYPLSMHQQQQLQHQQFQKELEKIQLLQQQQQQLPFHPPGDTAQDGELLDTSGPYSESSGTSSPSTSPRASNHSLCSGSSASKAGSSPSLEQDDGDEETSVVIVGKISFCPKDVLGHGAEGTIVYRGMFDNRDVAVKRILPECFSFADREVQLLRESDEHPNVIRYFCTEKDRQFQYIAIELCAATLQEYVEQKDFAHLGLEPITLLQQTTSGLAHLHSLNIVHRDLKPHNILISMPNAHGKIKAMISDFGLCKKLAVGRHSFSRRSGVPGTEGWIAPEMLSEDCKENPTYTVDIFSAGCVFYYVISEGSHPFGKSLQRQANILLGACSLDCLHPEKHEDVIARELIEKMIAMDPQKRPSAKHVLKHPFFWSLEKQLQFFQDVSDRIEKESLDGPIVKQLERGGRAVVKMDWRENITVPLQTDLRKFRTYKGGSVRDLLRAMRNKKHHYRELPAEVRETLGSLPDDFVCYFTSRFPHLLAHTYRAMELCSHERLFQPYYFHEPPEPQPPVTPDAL

[9] = molecular target: T4, Serine/threonine-protein kinase Sgk1 (Homo sapiens) (UniProt O00141); assay: Selectivity interaction (Kinase panel (literature)) EUB0001199aCl SGK1; conditions: at 1 µM
T4 sequence (whole entry): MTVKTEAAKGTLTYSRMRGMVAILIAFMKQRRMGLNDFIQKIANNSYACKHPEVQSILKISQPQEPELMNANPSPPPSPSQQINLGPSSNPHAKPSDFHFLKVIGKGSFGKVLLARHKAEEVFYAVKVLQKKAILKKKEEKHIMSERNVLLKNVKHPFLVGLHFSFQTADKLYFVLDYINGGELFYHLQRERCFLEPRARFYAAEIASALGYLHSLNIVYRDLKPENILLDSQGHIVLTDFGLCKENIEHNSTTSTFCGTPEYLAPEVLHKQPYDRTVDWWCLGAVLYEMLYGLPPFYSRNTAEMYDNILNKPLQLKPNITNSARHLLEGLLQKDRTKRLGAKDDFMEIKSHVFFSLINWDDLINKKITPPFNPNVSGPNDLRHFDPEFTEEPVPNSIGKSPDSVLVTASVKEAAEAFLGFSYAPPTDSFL

[10] = molecular target: Platelet-derived growth factor receptor alpha (Homo sapiens, UniProt P16234); assay: (§2) Selectivity interaction (Kinase panel (Carna Biosciences)) EUB0001542aTs PDGFRA; conditions: at 1 µM
Sequence of Platelet-derived growth factor receptor alpha (P16234 whole entry): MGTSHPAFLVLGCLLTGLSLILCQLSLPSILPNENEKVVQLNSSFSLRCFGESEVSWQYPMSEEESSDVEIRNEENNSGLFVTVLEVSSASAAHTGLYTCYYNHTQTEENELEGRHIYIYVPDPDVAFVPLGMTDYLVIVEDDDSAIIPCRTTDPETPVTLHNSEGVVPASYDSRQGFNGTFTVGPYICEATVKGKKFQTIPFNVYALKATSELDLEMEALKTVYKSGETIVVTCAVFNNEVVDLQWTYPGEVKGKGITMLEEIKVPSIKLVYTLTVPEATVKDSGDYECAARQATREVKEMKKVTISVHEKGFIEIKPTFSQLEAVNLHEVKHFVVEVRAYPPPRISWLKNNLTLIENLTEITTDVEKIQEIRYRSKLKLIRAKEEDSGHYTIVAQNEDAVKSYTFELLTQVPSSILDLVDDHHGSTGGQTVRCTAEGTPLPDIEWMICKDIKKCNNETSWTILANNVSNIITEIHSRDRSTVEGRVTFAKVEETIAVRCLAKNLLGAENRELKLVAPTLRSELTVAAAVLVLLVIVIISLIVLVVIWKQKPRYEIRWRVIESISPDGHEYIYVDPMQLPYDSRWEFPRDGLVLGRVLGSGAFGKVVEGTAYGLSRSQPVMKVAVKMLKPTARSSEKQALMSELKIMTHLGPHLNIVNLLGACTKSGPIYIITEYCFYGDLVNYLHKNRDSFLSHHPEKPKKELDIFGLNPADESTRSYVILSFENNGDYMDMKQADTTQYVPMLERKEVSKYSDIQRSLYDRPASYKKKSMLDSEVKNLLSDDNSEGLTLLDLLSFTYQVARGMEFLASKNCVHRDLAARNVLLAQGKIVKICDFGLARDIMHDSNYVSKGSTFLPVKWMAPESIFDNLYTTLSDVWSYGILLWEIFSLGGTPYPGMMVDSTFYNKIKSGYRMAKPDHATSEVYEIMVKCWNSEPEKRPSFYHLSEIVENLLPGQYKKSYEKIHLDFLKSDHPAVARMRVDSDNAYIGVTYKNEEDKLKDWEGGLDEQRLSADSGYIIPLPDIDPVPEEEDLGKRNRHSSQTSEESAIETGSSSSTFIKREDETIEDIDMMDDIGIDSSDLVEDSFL

[11] = tested on: Platelet-derived growth factor receptor alpha (Homo sapiens), P16234 [T674I]; assay: as §2; conditions: at 1 µM
Sequence of Platelet-derived growth factor receptor alpha (Homo sapiens), P16234 [T674I] (P16234 whole entry T674I): as the sequence (P16234 whole entry) above, with T674I counted along it

[12] = tested on: Platelet-derived growth factor receptor alpha (Homo sapiens), P16234 [V561D]; assay: as §2; conditions: at 1 µM
Sequence of Platelet-derived growth factor receptor alpha (Homo sapiens), P16234 [V561D] (P16234 whole entry V561D): as the sequence (P16234 whole entry) above, with V561D counted along it

[13] = molecular target: Mitogen-activated protein kinase kinase kinase 11 (Homo sapiens) (UniProt Q16584); assay: Selectivity interaction (KinomeScan (DiscoverX)) EUB0001619a MAP3K11; conditions: at 1 µM
Sequence of Mitogen-activated protein kinase kinase kinase 11 (Homo sapiens) (Q16584 whole entry, looked up): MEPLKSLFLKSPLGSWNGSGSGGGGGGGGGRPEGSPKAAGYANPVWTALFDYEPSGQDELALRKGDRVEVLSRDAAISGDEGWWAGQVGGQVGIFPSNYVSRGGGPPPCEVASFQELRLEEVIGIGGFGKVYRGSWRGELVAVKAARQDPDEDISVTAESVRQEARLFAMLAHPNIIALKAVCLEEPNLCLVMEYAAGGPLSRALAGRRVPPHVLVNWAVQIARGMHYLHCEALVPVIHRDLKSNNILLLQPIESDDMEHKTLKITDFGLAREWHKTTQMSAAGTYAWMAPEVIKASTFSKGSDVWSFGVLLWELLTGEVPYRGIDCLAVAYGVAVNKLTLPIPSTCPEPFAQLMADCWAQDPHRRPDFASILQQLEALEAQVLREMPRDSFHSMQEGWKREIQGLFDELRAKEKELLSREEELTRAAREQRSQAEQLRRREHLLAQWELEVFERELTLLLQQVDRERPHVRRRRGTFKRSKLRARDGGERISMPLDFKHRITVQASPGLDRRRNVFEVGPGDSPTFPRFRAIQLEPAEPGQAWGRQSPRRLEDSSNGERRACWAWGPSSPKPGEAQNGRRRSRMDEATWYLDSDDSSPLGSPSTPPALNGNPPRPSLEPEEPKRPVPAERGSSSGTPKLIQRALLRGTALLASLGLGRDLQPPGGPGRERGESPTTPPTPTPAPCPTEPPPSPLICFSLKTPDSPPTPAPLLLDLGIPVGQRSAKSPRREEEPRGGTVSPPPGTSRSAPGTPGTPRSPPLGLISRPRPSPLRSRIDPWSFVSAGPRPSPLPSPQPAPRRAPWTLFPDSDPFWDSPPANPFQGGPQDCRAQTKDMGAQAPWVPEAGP

[14] = molecular target: Serine/threonine-protein kinase SBK1 (Homo sapiens) (UniProt Q52WX2); assay: Selectivity interaction (KinomeScan (DiscoverX)) EUB0001619a SBK1; conditions: at 1 µM
Sequence of Serine/threonine-protein kinase SBK1 (Homo sapiens) (Q52WX2 whole entry): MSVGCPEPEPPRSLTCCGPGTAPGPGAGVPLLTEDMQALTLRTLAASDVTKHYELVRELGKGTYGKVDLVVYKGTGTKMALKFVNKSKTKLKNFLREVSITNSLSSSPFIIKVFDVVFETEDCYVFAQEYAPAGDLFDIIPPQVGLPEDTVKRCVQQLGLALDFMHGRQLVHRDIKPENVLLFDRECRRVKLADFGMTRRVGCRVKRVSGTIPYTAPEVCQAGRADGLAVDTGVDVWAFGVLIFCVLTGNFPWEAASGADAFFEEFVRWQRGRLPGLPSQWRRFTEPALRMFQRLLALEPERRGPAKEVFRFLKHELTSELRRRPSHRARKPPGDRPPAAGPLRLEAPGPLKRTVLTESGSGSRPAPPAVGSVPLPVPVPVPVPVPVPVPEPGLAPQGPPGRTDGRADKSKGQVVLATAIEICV

[15] = molecular target: Protein-tyrosine kinase 6 (Homo sapiens, UniProt Q13882); assay: Selectivity interaction (KinomeScan (DiscoverX)) EUB0001619a PTK6; conditions: at 1 µM
Sequence of Protein-tyrosine kinase 6 (Q13882 whole entry, looked up): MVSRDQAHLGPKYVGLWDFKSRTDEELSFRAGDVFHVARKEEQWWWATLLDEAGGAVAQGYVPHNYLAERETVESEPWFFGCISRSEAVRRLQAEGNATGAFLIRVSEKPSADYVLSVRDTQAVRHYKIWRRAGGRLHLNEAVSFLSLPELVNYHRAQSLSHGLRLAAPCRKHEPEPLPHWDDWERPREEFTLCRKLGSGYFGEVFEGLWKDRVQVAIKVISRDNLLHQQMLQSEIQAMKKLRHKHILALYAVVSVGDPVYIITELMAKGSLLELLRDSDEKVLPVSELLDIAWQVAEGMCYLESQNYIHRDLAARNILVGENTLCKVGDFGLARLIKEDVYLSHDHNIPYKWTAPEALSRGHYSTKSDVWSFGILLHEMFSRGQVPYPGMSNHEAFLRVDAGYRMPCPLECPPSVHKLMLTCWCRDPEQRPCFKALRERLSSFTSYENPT

## COc1cc(N(C)c2ccnc3ccc(C(F)(F)F)cc23)cc(OC)c1OC
[1]
  % binding: 84%

## O=C(NOC[C@H](O)CO)c1ccc(F)c(F)c1Nc1ccc(I)cc1F
[2]
  % of control: 91%

## CCC(=O)N1CC[C@H](Nc2ncnc3c2CN(c2cnc(OC)c(C(F)(F)F)c2)CC3)C1 [LENIOLISIB]
[3]
  % of inhibition: 76%

## CNC(=O)Nc1ccc(-c2nc(N3CC4CCC(C3)O4)c3cnn(C4CCC5(CC4)OCCO5)c3n2)cc1
[4]
  % of control: 100%
[5]
  % of inhibition: 5%
[6]
  % of inhibition: 6%

## Cc1cc(F)c(C(=O)Nc2cccc(-c3nncn3C(C)C)n2)cc1-n1cnc(C2CC2)c1
[7]
  % of control: 100%

## COCC(=O)NC/C=C/c1ccc2ncnc(Nc3ccc(Oc4ccc(C)nc4)c(C)c3)c2c1 [CP-724714]
[8]
  % of control: 82%

## CN1Cc2nccc(-c3cn(C)nc3-c3ccc(F)cc3)c2C1=O
[9]
  % of inhibition: 2%

## Cn1cc(Nc2nccc(N3CC4CCC(C3)N4C(=O)[C@@H]3CC3(F)F)n2)cn1
[10]
  % of inhibition: 70%
[11]
  % of inhibition: 78%
[12]
  % of inhibition: 60%

## N#Cc1cccc(-c2c[nH]c3ncnc(N4CCOCC4)c23)c1
[13]
  % of control: 100%
[14]
  % of control: 100%
[15]
  % of control: 72%
